According to patent US6627651B1, “Cyclic compounds and uses thereof” (Takeda Chemical Industries, Ltd., priority 1999, dated 2003):

SMILES	melting point
Cc1ccc(-c2ccc3c(c2)CN(C(=O)Nc2ccc(C[N+]4(C)CCCCC4)cc2)CC3)cc1.[Cl-]	179 to 180 °C (dec.)
CN(Cc1ccc(NC(=O)C2CCS(=O)(=O)c3ccc(OCc4ccc(F)cc4)cc3C2)cc1)C1CCOCC1 (centres unmarked) [Compound 3, 7-(4-fluorobenzyloxy)-N-[4-[N-methyl-N-(tetrahydropyran-4-yl)aminomethyl]phenyl]-1,1-dioxo-3,4-dihydro-1-benzothiepine-4-carboxamide]	232 to 234 °C
CN(Cc1ccc(NC(=O)C2=Cc3cc(OCc4cccnc4)ccc3S(=O)(=O)CC2)cc1)C1CCOCC1 [Compound 4, N-[4-[N-methyl-N-(tetrahydropyran-4-yl)aminomethyl]phenyl]-7-(3-pyridylmethoxy)-1,1-dioxo-2,3-dihydro-1-benzothiepine-4-carboxamide]	225 to 229 °C
Cc1ccc(C2=Cc3cc(C(=O)Nc4ccc(CN(C)C5CCOCC5)cc4)ccc3OC2)cc1 [Compound 22, 3-(4-methylphenyl)-N-[4-[N-methyl-N-(tetrahydropyran-4-yl)aminomethyl]phenyl]-2H-1-benzopyran-6-carboxamide]	230 to 235 °C
Cc1ccc(-c2ccc3cc(C(=O)Nc4ccc(CN(C)C5CCOCC5)cc4)[nH]c3c2)cc1 [Compound 23, 6-(4-methylphenyl)-N-[4-[N-methyl-N-(tetrahydropyran-4-yl)aminomethyl]phenyl]-1H-indole-2-carboxamide]	246 to 250 °C
Cc1ccc(-c2ccc3cc(C(=O)Nc4ccc(CN(C)C5CCOCC5)cc4)n(C)c3c2)cc1 [Compound 24, 1-methyl-6-(4-methylphenyl)-N-[4-[N-methyl-N-(tetrahydropyran-4-yl)aminomethyl]phenyl]-1H-indole-2-carboxamide]	225 to 226 °C
Cc1ccc(C2=Cc3cc(C(=O)Nc4ccc(C[N+](C)(C)C5CCOCC5)cc4)ccc3OC2)cc1.[I-] [Compound 28, N,N-dimethyl-N-[4-[[3-(4-methylphenyl)-2H-1-benzopyran-6-carbonyl]amino]benzyl]-4-tetrahydropyranylammonium iodide]	215 to 218 °C (dec.)
Cc1ccc(-c2ccc3c(c2)C=C(N(C)c2ccc(CN(C)C4CCOCC4)cc2)CCO3)cc1 [Compound 34, N-[4-[(N-methyl-N-(tetrahydropyran-4-yl)aminomethyl)]phenyl]-N-[7-(4-methylphenyl)-2,3-dihydro-1-benzooxepin-4-yl]methylamine]	158 to 160 °C
Cc1ccc(-c2ccc3c(c2)C=C(C(=O)N[C@H]2CC[C@H](CN(C)C4CCOCC4)CC2)CCC3)cc1 [Compound 64, trans-2-(4-methylphenyl)-N-[4-[N-methyl-N-(tetrahydropyran-4-yl)aminomethyl]cyclohexyl]-6,7-dihydro-5H-benzocycloheptene-8-carboxamide]	163 to 165 °C
Cc1ccc(-c2ccc3c(c2)C=C(C(=O)N[C@H]2CC[C@H](CN(C)C4CCN(C(=O)OC(C)(C)C)CC4)CC2)CCO3)cc1 [Compound 65, trans-N-[4-[N-(1-tert-butoxycarbonylpiperidin-4-yl)-N-methylaminomethyl]cyclohexyl]-7-(4-methylphenyl)-2,3-dihydro-1-benzooxepine-4-carboxamide]	146 to 150 °C
Cc1ccc(C2=Cc3cc(C(=O)N[C@H]4CC[C@H](CN(C)C5CCOCC5)CC4)ccc3OC2)cc1 [Compound 68, trans-3-(4-methylphenyl)-N-[4-[N-methyl-N-(tetrahydropyran-4-yl)aminomethyl]cyclohexyl]-2H-1-benzopyran-6-carboxamide]	205 to 207 °C
Cc1ccc(-c2ccc3nc(C)c(C(=O)N[C@H]4CC[C@H](CN(C)C5CCOCC5)CC4)cc3c2)cc1 [Compound 70, trans-2-methyl-6-(4-methylphenyl)-N-[4-[N-methyl-N-(tetrahydropyran-4-yl)aminomethyl]cyclohexyl]quinoline-3-carboxamide]	163 to 165 °C
Cc1ccc(-c2csc(/C=C/C(=O)N[C@H]3CC[C@H](CN(C)C4CCOCC4)CC3)c2)cc1 [Compound 72, (trans, E)-3-[4-(4-methylphenyl)thiophen-2-yl]-N-[4-[N-methyl-N-(tetrahydropyran-4-yl)aminomethyl]cyclohexyl]acrylamide]	180 to 183 °C
Cc1ccc(-c2cncc(/C=C/C(=O)N[C@H]3CC[C@H](CN(C)C4CCOCC4)CC3)c2)cc1 [Compound 73, (trans, E)-3-[5-(4-methylphenyl)pyridin-3-yl]-N-[4-[N-methyl-N-(tetrahydropyran-4-yl)aminomethyl]cyclohexyl]acrylamide]	233 to 236 °C
Cc1ccc(-c2coc(/C=C/C(=O)N[C@H]3CC[C@H](CN(C)C4CCOCC4)CC3)c2)cc1 [Compound 74, (trans, E)-3-[4-(4-methylphenyl)furan-2-yl]-N-[4-[N-methyl-N-(tetrahydropyran-4-yl)aminomethyl]cyclohexyl]acrylamide]	165 to 167 °C
O=C(Nc1ccc(CN2CCCCC2)cc1)C1CCc2ccc(-c3ccccc3)cc2C1 (centres unmarked) [Compound 82, N-[4-(piperidinomethyl)phenyl]-7-phenyl-1,2,3,4-tetrahydronaphthalene-2-carboxamide]	185 to 187 °C
C[N+]1(Cc2ccc(NC(=O)C3CCc4ccc(-c5ccccc5)cc4C3)cc2)CCCCC1.[I-] (centres unmarked) [Compound 83, 1-[4-(7-phenyl-1,2,3,4-tetrahydronaphthalene-2-carboxamido)benzyl]-1-methylpiperidinium iodide]	205 to 208 °C
Cc1ccc(COc2cccc(C(=O)Nc3ccc(CN4CCCCC4)cc3)c2)cc1 [Compound 85, 3-(4-methylbenzyloxy)-4′-(piperidinomethyl)benzanilide]	153 to 155 °C
O=C(Nc1ccc(CN2CCCCC2)cc1)c1cccc(OCc2cccc3ccccc23)c1 [Compound 86, 3-(1-naphthylmethoxy)-4′-(piperidinomethyl)benzanilide]	171 to 173 °C
C[N+]1(Cc2ccc(NC(=O)c3cccc(OCc4ccccc4)c3)cc2)CCCCC1.[I-] [Compound 87, 1-[4-(3-benzyloxybenzoylamino)benzyl]-1-methylpiperidinium iodide]	192 to 194 °C
Cc1ccc(COc2cccc(C(=O)Nc3ccc(C[N+]4(C)CCCCC4)cc3)c2)cc1.[I-] [Compound 88, 1-methyl-1-[4-[3-(4-methylbenzyloxy)benzoylamino]benzyl]piperidinium iodide]	210 to 212 °C
C[N+]1(Cc2ccc(NC(=O)c3cccc(OCc4cccc5ccccc45)c3)cc2)CCCCC1.[I-] [Compound 89, 1-methyl-1-[4-[3-(1-naphthylmethoxy)benzoylamino]benzyl]piperidinium iodide]	211 to 213 °C

Next, values leading:

melting point	SMILES
294 to 296 °C	Cc1ccc(-c2ccc3c(c2)C=C(C(=O)Nc2ccc(C(=N)N)cc2)CCO3)cc1.Cl
> 300 °C	CCNC(=N)c1ccc(NC(=O)C2=Cc3cc(-c4ccc(C)cc4)ccc3OCC2)cc1.Cl
183 to 185 °C	Cc1ccc(-c2ccc3c(c2)C=C(C(=O)NC2CCNCC2)CCO3)cc1 [Compound 54, N-(4-piperidinyl)-7-(4-methylphenyl)-2,3-dihydro-1-benzooxepine-4-carboxamide]
180 to 181 °C	Cc1ccc(-c2ccc3c(c2)C=C(C(=O)NC2CCN(CC4CCCCC4)CC2)CCO3)cc1 [Compound 55, N-(1-cyclohexylmethylpiperidin-4-yl)-7-(4-methylphenyl)-2,3-dihydro-1-benzooxepine-4-carboxamide]
148 to 151 °C	Cc1ccc(-c2ccc3c(c2)C=C(C(=O)NC2CCN(CC4=CCCCCCC4)CC2)CCO3)cc1 [Compound 57, N-(1-(cycloocten-1-yl)methylpiperidin-4-yl)-7-(4-methylphenyl)-2,3-dihydro-1-benzooxepine-4-carboxamide]
161 to 162 °C (dec.)	Cc1ccc(-c2ccc3c(c2)C=C(C(=O)NC2CCN(Cc4ccccc4)CC2)CCO3)cc1 [Compound 58, N-(1-benzylpiperidin-4-yl)-7-(4-methylphenyl)-2,3-dihydro-1-benzooxepine-4-carboxamide]
128 to 130 °C	Cc1ccc(-c2ccc3c(c2)C=C(C(=O)NC2CCN(CC4=CCCCCCCC4)CC2)CCO3)cc1 [Compound 59, N-(1-(cyclononen-1-yl)methylpiperidin-4-yl)-7-(4-methylphenyl)-2,3-dihydro-1-benzooxepine-4-carboxamide]
193 to 196 °C	Cc1ccc(-c2ccc3c(c2)C=C(C(=O)NC2CCN(CCC4CCCCC4)CC2)CCO3)cc1 [Compound 60, N-(1-(2-cyclohexylethyl)piperidin-4-yl)-7-(4-methylphenyl)-2,3-dihydro-1-benzooxepine-4-carboxamide]
180 to 182 °C	Cc1ccc(-c2ccc3c(c2)C=C(C(=O)NC2CCN(C)CC2)CCO3)cc1 [Compound 61, N-(1-methylpiperidin-4-yl)-7-(4-methylphenyl)-2,3-dihydro-1-benzooxepine-4-carboxamide]
144 to 146 °C	Cc1ccc(-c2ccc3c(c2)C=C(C(=O)N[C@H]2CC[C@H](CN(C)C4CCOCC4)CC2)CCO3)cc1 [Compound 63, trans-7-(4-methylphenyl)-N-[4-[N-methyl-N-(tetrahydropyran-4-yl)aminomethyl]cyclohexyl]-2,3-dihydro-1-benzooxepine-4-carboxamide]
141 to 143 °C	Cc1ccc(-c2ccc3c(c2)C=C(C(=O)N[C@H]2CC[C@H](CN(C)C4CCOCC4)CC2)CO3)cc1 [Compound 67, trans-6-(4-methylphenyl)-N-[4-[N-methyl-N-(tetrahydropyran-4-yl)aminomethyl]cyclohexyl]-2H-1-benzopyran-3-carboxamide]
123 to 127 °C	Cc1ccc(-c2ccc3c(c2)C=C(C(=O)N2CCC(N)CC2)CCO3)cc1 [Compound 76, 4-amino-1-(7-(4-methylphenyl)-2,3-dihydro-1-benzooxepine-4-carbonyl)piperidine]
101 to 103 °C	Cc1ccc(-c2ccc3c(c2)C=C(CN2CCC(NC4CCOCC4)CC2)CCO3)cc1 [Compound 80, 1-(7-(4-methylphenyl)-2,3-dihydro-1-benzooxepin-4-yl)methyl-4-((tetrahydropyran-4-yl)amino)piperidine]
